# Results taken from PubChem BioAssay AID180 (DTP/NCI, 2004).
# Values joined by “and” are separate entries in the source; they are usually repeats but may differ in a detail not shown here. Identical values can stand only once. Starred links: 1 amine or outer side, 2 acyl side, 3 side chain; linkers in the order of their positions; H or OH if unused. Positions of bridges follow the written chain, without caps; N, C: chain ends. Non-standard residues stand in square brackets, D forms with d. Residues, ends and D or L forms follow the SMILES beside them. Chains are numbered I, II in the order given. Actinocin(9to1) = Cc1c2oc3c(C)ccc(C(=O)[*:1])c3nc-2c(C(=O)[*:2])c(N)c1=O; aThr = C[C@H](O)[C@H](N)C(=O)O; NMeV = CN[C@H](C(=O)O)C(C)C; Sar = CNCC(=O)O
# System: BDF1 mice, Adenocarcinoma 755 s.c., tumor weight T/C
# Assay: NCI In Vivo Anticancer Drug Screen. Data for tumor model Adenocarcinoma 755 (subcutaneous) in B6D2F1 (BDF1) mice
# Conditions: endpoint: mean tumor weight, higher = larger tumour
# Protocol: The antitumor activity of compounds was measured in mice bearing transplantable tumors. Survival or tumor size were measured and the results are expressed as the measurement made in the treated group (T) divided by the measurement made in the vehicle treated control group (C). The tumor model used in this assay is Adenocarcinoma 755 (subcutaneous) in B6D2F1 (BDF1) mice
structure (smiles),measurement,setting,value
Cn1c(=O)c2c(nc(COCc3nc4c(c(=O)n(C)c(=O)n4C)n3C)n2C)n(C)c1=O,T/C,"dose: 25.0 mg/kg/injection, schedule: Q01DX011 (ip), vehicle: methylcellulose (MC)",60 % of control
same,T/C,"dose: 75.0 mg/kg/injection, schedule: Q01DX011 (ip), vehicle: methylcellulose (MC)",82 % of control
same,T/C,"dose: 225.0 mg/kg/injection, schedule: Q01DX011 (ip), vehicle: methylcellulose (MC)",33 % of control
ClCCn1cnc2c(SCc3ccccc3Cl)ncnc21,T/C,"dose: 0.5 mg/kg/injection, schedule: Q01DX011 (ip), vehicle: other",91 % of control
same,T/C,"dose: 0.5 mg/kg/injection, schedule: Q01DX011 (oral), vehicle: other",74 % of control
same,T/C,"dose: 1.0 mg/kg/injection, schedule: Q01DX011 (ip), vehicle: other",84 % of control
same,T/C,"dose: 2.0 mg/kg/injection, schedule: Q01DX011 (ip), vehicle: other",42 % of control and 47 % of control
same,T/C,"dose: 2.0 mg/kg/injection, schedule: Q01DX011 (oral), vehicle: other",109 % of control
same,T/C,"dose: 4.0 mg/kg/injection, schedule: Q01DX011 (oral), vehicle: other",75 % of control and 81 % of control
same,T/C,"dose: 8.0 mg/kg/injection, schedule: Q01DX011 (ip), vehicle: other",3 % of control
same,T/C,"dose: 8.0 mg/kg/injection, schedule: Q01DX011 (oral), vehicle: other",25 % of control and 32 % of control
same,T/C,"dose: 15.0 mg/kg/injection, schedule: Q01DX011 (oral), vehicle: other",5 % of control and 13 % of control
same,T/C,"dose: 30.0 mg/kg/injection, schedule: Q01DX011 (oral), vehicle: other",1 % of control
same,T/C,"dose: 100.0 mg/kg/injection, schedule: Q01DX011 (ip), vehicle: carboxymethylcellulose (CMC)",3 % of control
CCC1OCCN1C(C)C (stereo unspecified),T/C,"dose: 12.0 mg/kg/injection, schedule: Q01DX011 (ip), vehicle: other",118 % of control
same,T/C,"dose: 25.0 mg/kg/injection, schedule: Q01DX011 (ip), vehicle: carboxymethylcellulose (CMC)",57 % of control
same,T/C,"dose: 25.0 mg/kg/injection, schedule: Q01DX011 (ip), vehicle: other",109 % of control
same,T/C,"dose: 25.0 mg/kg/injection, schedule: Q01DX011 (ip), vehicle: saline",84 % of control
same,T/C,"dose: 50.0 mg/kg/injection, schedule: Q01DX011 (ip), vehicle: carboxymethylcellulose (CMC)",33 % of control
same,T/C,"dose: 50.0 mg/kg/injection, schedule: Q01DX011 (ip), vehicle: other",223 % of control
same,T/C,"dose: 50.0 mg/kg/injection, schedule: Q01DX011 (ip), vehicle: saline",29 % of control
CS(C)=O,T/C,"dose: 1000.0 mg/kg/injection, schedule: Q01DX011 (ip), vehicle: other",71 % of control
same,T/C,"dose: 1000.0 mg/kg/injection, schedule: Q#A X022 (ip), vehicle: other",25 % of control
same,T/C,"dose: 1500.0 mg/kg/injection, schedule: Q01DX011 (ip), vehicle: other",115 % of control
same,T/C,"dose: 1500.0 mg/kg/injection, schedule: Q#A X022 (ip), vehicle: other",67 % of control
"Cc1c2oc3c(C)ccc(C(=O)N[C@@H]4C(=O)N[C@H](C(C)C)C(=O)N5CCC[C@H]5C(=O)N(C)CC(=O)N(C)[C@@H](C(C)C)C(=O)O[C@H]4C)c3nc-2c(C(=O)N[C@@H]2C(=O)N[C@H](C(C)C)C(=O)N3CCC[C@H]3C(=O)N(C)CC(=O)N(C)[C@@H](C(C)C)C(=O)O[C@H]2C)c(N)c1=O (I: [aThr][dV]P[Sar][NMeV] / II: [aThr][dV]P[Sar][NMeV]; ester I:1-I:C, II:1-II:C; linker I:N-II:N via Actinocin(9to1))",T/C,"dose: 0.02 mg/kg/injection, schedule: Q01DX011 (ip), vehicle: saline",2 % of control
same,T/C,"dose: 0.03 mg/kg/injection, schedule: Q01DX011 (ip), vehicle: carboxymethylcellulose (CMC)",9 % of control
same,T/C,"dose: 0.04 mg/kg/injection, schedule: Q01DX011 (ip), vehicle: carboxymethylcellulose (CMC)",105 % of control
same,T/C,"dose: 0.08 mg/kg/injection, schedule: Q01DX011 (ip), vehicle: carboxymethylcellulose (CMC)",39 % of control
same,T/C,"dose: 12.0 micrograms/kg/injection, schedule: Q01DX011 (ip), vehicle: carboxymethylcellulose (CMC)",101 % of control
same,T/C,"dose: 15.0 micrograms/kg/injection, schedule: Q01DX011 (ip), vehicle: carboxymethylcellulose (CMC)",82 % of control
same,T/C,"dose: 24.0 micrograms/kg/injection, schedule: Q01DX011 (ip), vehicle: carboxymethylcellulose (CMC)",26 % of control and 43 % of control
same,T/C,"dose: 40.0 micrograms/kg/injection, schedule: Q01DX011 (ip), vehicle: carboxymethylcellulose (CMC)",4 % of control and 13 % of control
same,T/C,"dose: 48.0 micrograms/kg/injection, schedule: Q01DX011 (ip), vehicle: carboxymethylcellulose (CMC)",10 % of control and 11 % of control
same,T/C,"dose: 53.0 micrograms/kg/injection, schedule: Q01DX011 (ip), vehicle: carboxymethylcellulose (CMC)",3 % of control and 4 % of control
same,T/C,"dose: 95.0 micrograms/kg/injection, schedule: Q01DX011 (ip), vehicle: carboxymethylcellulose (CMC)",2 % of control
